According to patent publication US20110176998A1, “IMAGING AND THERAPY OF VIRUS-ASSOCIATED TUMORS” (THE JOHNS HOPKINS UNIVERSITY, priority 2007, published 2011):
Where “and” joins values, the source holds several entries; their conditions need not be identical. Identical values can stand only once.

What was measured:
[1] = tested on: Rael Burkitt's lymphoma (EBV); experiment: [125I]FIAU imaging and tissue distribution, Rael xenografts; assay type: in vivo, SCID mice
Method: Bortezomib was always administered 24 hours before [^125I]FIAU, also intravenously. […] 2 μg/g of bortezomib stimulated the maximum target to non-target signal ratio at 96 hours after treatment in this cell line. The radioactivity depicted by the arrow in FIG. 14B at the 96 hour time point was within the tumor as shown by concurrent ex vivo gamma counting. Similar results were obtained in animals bearing another EBV(+) Burkitt cell line (Rael) xenograft. […] The percentage of injected dose per gram (% ID/g) derived from the images was 1.13±0.01 and 0.70±0.01 at 72 and 96 hours, respectively. Only one mouse was imaged with SPECT-CT, so the standard deviation (SD) values were derived from the multiple slices of each image.

[2] = tested on: EBV(−) osteosarcoma xenografts (V143b); experiment: [125I]FIAU imaging, V143b control tumors; assay type: in vivo, mice; details: with or without bortezomib
Excerpt: (§1) Quantitative data were not derived from the images except for once instance that employed SPECT-CT (see below). […] The detector material or scintillator crystal is composed of NaI[Tl], which has a pixel size 2 mm×2 mm×6 mm. […] The static acquisition protocol of the LumaGEM™ software provided with the X-SPECT was used.

[3] = tested on: EBV(+) Burkitt's lymphoma xenografts (Akata); experiment: [125I]FIAU imaging and ex vivo biodistribution, EBV(+) Akata xenografts; assay type: in vivo, SCID mice; details: for % ID/g derived from SPECT-CT images, tumor: bortezomib 2 μg/g, one mouse, SD from slices; for % ID/g ± SD, Blood / % ID/g ± SD, Kidney / % ID/g ± SD, Liver / % ID/g ± SD, Muscle / % ID/g ± SD, Spleen / % ID/g ± SD, Tumor: n = 4
Method: 5×10^6 cells were resuspended in 200 μL Matrigel Matrix (ED Biosciences, Bedford, Mass.) and injected subcutaneously near the shoulder of 6-7-week-old male severe combined immunodeficient (SCID) mice.
All work was undertaken in accordance with the regulations of Johns Hopkins Animal Care and Use Committee. Adult male SCID mice (5-6 weeks old) were purchased from the National Cancer Institute (Frederick, Md.). Three days before imaging, all mice received 1 mL intraperitoneal (i.p.) injections of 0.9% NaI solution daily for 3 consecutive days to block the thyroid uptake of free radioiodide. Twenty four hours prior to [^125I]FIAU injection, lytic induction was initiated with bortezomib. Each mouse was injected i.p. with a dose of 2 μg/g of bortezomib. Bortezomib was made fresh in PBS and filter sterilized with a 0.2 μm syringe filter (Millipore, Billerica, Mass.) immediately before each injection. Control mice were injected i.p. with PBS alone. On the day of radiotracer injection, the animals were anesthetized with 2.3 mL/kg of a mixture of 25 mg/mL ketamine and 2 mg/mL acepromazine in 0.9% saline injected i.p. Isoflurane (0.5%-1% at 0.5-1 L/minute) was administered to maintain anesthesia.
Four mice were sacrificed at each indicated time by cervical dislocation. Tumor, liver, spleen, kidney, fat, blood, and muscle were removed and weighed after which the tissue radioactivity was measured using an automated gamma counter. A 0.1 mL sample of blood was also collected. […] The standard deviation (SD) was also calculated.
as §1

KT gastric cancer (EBV) = experiment: [125I]FIAU imaging and tissue distribution, KT xenograft
[4] = tested on: TK143b osteosarcoma (constitutive EBV TK); experiment: [125I]FIAU imaging and tissue distribution, TK143b tumors
BCBL1 lymphoma (KSHV) = experiment: [125I]FIAU imaging and tissue distribution, BCBL1 xenograft; assay type: in vivo, SCID mice
Excerpt: (§2) The approach observed in EBV-associated tumors is also applicable to other KSHV-associated tumors as shown in studies on two primary effusion lymphoma (PEL) cell lines that harbor KSHV. […] Finally, when induction with bortezomib was followed by treatment with [^131I]FIAU tumors regressed (FIG. 19C).

BC3 lymphoma (KSHV) = experiment: [125I]FIAU imaging and tissue distribution, BC3 xenograft; assay type: in vivo, SCID mice
Excerpt: as §2

[5] = Rael, bortezomib induction, 4 days p.i., 5 μCi, N 4
[6] = KT, bortezomib induction, 4 days p.i., 5 μCi, N 3
[7] = TK143b, constitutive EBV TK, 4 days p.i., 5 μCi, N 3
[8] = bortezomib induction, 4 days p.i., 5 μCi, N 5
[9] = bortezomib induction, 5 days p.i., 5 μCi, N 3

O=c1[nH]c(=O)n([C@@H]2O[C@H](CO)[C@@H](O)[C@@H]2F)cc1[125I] [[^125I]FIAU, [^125I]2-fluoro-2′-deoxy-beta-D-5-iodouracil-arabinofuranoside]
% ID/g ± SD, Kidney [1, 5]: 0.146 ± .054 % ID/g
% ID/g ± SD, Liver [1, 5]: 0.052 ± .027 % ID/g
% ID/g ± SD, Muscle [1, 5]: 0.084 ± .012 % ID/g
% ID/g ± SD, Spleen [1, 5]: 0.064 ± .011 % ID/g
% ID/g ± SD, Tumor [1, 5]: 1.200 ± 0.356 % ID/g
tumor visualization ([1]; following bortezomib, by 30 hours after radiopharmaceutical injection): clearly visualized
tumor uptake on imaging [2]: No tumor uptake was evident
% ID/g derived from SPECT-CT images, tumor ([3]; 72 hours after radiopharmaceutical): 1.13±0.01 % ID/g
increase of tumor uptake over baseline after bortezomib ([3]; 96 h, bortezomib vs PBS): ~22 fold
% ID/g derived from SPECT-CT images, tumor ([3]; 96 hours after radiopharmaceutical): 0.70±0.01 % ID/g
% ID/g ± SD, Blood ([3]; Bortezomib treatment, 96 h): 0.022 ± 0.010 % ID/g
% ID/g ± SD, Kidney ([3]; Bortezomib treatment, 96 h): 0.070 ± 0.010 % ID/g
% ID/g ± SD, Liver ([3]; Bortezomib treatment, 96 h): 0.016 ± 0.002 % ID/g
% ID/g ± SD, Muscle ([3]; Bortezomib treatment, 96 h): 0.040 ± 0.005 % ID/g
% ID/g ± SD, Spleen ([3]; Bortezomib treatment, 96 h): 0.060 ± 0.011 % ID/g
% ID/g ± SD, Tumor ([3]; Bortezomib treatment, 96 h): 0.85 % ID/g and 0.850 ± 0.102 % ID/g
% ID/g ± SD, Blood ([3]; PBS treatment, 96 h): 0.033 ± 0.009 % ID/g
% ID/g ± SD, Kidney ([3]; PBS treatment, 96 h): 0.068 ± 0.014 % ID/g
% ID/g ± SD, Liver ([3]; PBS treatment, 96 h): 0.029 ± 0.011 % ID/g
% ID/g ± SD, Muscle ([3]; PBS treatment, 96 h): 0.030 ± 0.010 % ID/g
% ID/g ± SD, Spleen ([3]; PBS treatment, 96 h): 0.014 ± 0.006 % ID/g
% ID/g ± SD, Tumor ([3]; PBS treatment, 96 h): 0.039 % ID/g and 0.039 ± 0.010 % ID/g
tumor visualization, planar gamma imaging ([3]; bortezomib 2 μg/g 24 hours before, 4 days postinjection): clearly visible
time of peak tumor uptake ([3]; postinjection, pretreated with bortezomib): 96 h
tumor uptake, planar gamma imaging ([3]; pretreated with PBS only): no tumor uptake was evident
range of uptake as % ID/g (color bar), SPECT-CT (KT gastric cancer (EBV); KT tumor, 72 hours p.i., following bortezomib): 0.68 % ID/g
% ID/g ± SD, Kidney (KT gastric cancer (EBV); [6]): 0.090 ± 0.030 % ID/g
% ID/g ± SD, Liver (KT gastric cancer (EBV); [6]): 0.050 ± 0.017 % ID/g
% ID/g ± SD, Muscle (KT gastric cancer (EBV); [6]): 0.080 ± 0.062 % ID/g
% ID/g ± SD, Spleen (KT gastric cancer (EBV); [6]): 0.080 ± 0.035 % ID/g
% ID/g ± SD, Tumor (KT gastric cancer (EBV); [6]): 0.598 ± 0.472 % ID/g
initial activity concentration in the mouse tumor ([4]; 2-h): 1.95 % ID/g
tumor to muscle ratio ([4]; 2 hours post-infusion): 4.6
tumor to muscle ratio ([4]; 24 hours post-infusion (peak)): 205
tumor to muscle ratio ([4]; 96 hours post-infusion): 114
% ID/g ± SD, Kidney [4, 7]: 0.033 ± 0.058 % ID/g
% ID/g ± SD, Liver [4, 7]: 0.013 ± 0.006 % ID/g
% ID/g ± SD, Muscle [4, 7]: 0.015 ± 0.014 % ID/g
% ID/g ± SD, Spleen [4, 7]: 0.027 ± 0.015 % ID/g
% ID/g ± SD, Tumor [4, 7]: 1.667 ± 0.681 % ID/g
tumor imaging ([4]; cell line engineered to express constitutively the EBV-TK): readily imaged
radioactivity levels in the tumor ([4]; from 2 hours until last time point at 96 hours): remained constant
range of uptake as % ID/g (color bar), SPECT-CT (BCBL1 lymphoma (KSHV); 48 hours p.i., following bortezomib): 1.53 % ID/g
tumor imaging (BCBL1 lymphoma (KSHV); after bortezomib): allowed imaging
% ID/g ± SD, Kidney (BCBL1 lymphoma (KSHV); [8]): 0.167 ± 0.038 % ID/g
% ID/g ± SD, Liver (BCBL1 lymphoma (KSHV); [8]): 0.0617 ± 0.022 % ID/g
% ID/g ± SD, Muscle (BCBL1 lymphoma (KSHV); [8]): 0.078 ± 0.005 % ID/g
% ID/g ± SD, Spleen (BCBL1 lymphoma (KSHV); [8]): 0.064 ± 0.014 % ID/g
% ID/g ± SD, Tumor (BCBL1 lymphoma (KSHV); [8]): 1.100 ± 0.361 % ID/g
tumor imaging (BC3 lymphoma (KSHV); after bortezomib): allowed imaging
% ID/g ± SD, Kidney (BC3 lymphoma (KSHV); [9]): 0.027 ± 0.003 % ID/g
% ID/g ± SD, Liver (BC3 lymphoma (KSHV); [9]): 0.009 ± 0.002 % ID/g
% ID/g ± SD, Muscle (BC3 lymphoma (KSHV); [9]): 0.008 ± 0.004 % ID/g
% ID/g ± SD, Spleen (BC3 lymphoma (KSHV); [9]): 0.008 ± 0.002 % ID/g
% ID/g ± SD, Tumor (BC3 lymphoma (KSHV); [9]): 1.213 ± 0.214 % ID/g
